Measurements taken from patent publication US11618738B2, “Compound and application thereof in treating inflammation or inflammation-related diseases” (SICHUAN CENTER FOR TRANSLATIONAL MEDICINE OF TRADITIONAL …, priority 2017, dated 2023).
Like-named read-outs stand apart in the source and are kept apart here.

Experiments:
[1] = test system: NO induced by LPS; assay: Inhibition of LPS-induced NO in RAW 264.7 cells (Greiss reagent); assay type: cell-based, mice; details: for IC50: Mus musculus, RAW264.7
Description: Nitric oxide (NO) is a signaling molecule that plays a key role in the pathogenesis of inflammation. Under abnormal conditions, NO is a pro-inflammatory mediator that causes inflammation due to its overproduction. Therefore, the regulation of elevated NO levels by stimulants (such as LPS) has been widely used as a screening method to identify anti-inflammatory drugs. Since NO is oxidized into nitrite and nitrate, the determination of total NO2^−/NO3^− is a conventional method for determining NO levels, and Griess reagent is usually used in this type of experiment.
(§1) This example is taken from a previous publication by Song et al.^[1]. In brief, mice RAW 264.7 cells were treated with increasing doses of each test compound at 37° C. for 1 hour. Thereafter, the cells were attacked with 20 μL/well of LPS (equivalent to a final concentration of 100 ng/mL). The cells were further incubated overnight at 37° C. A commercial ELISA assay kit obtained from R&D Systems (Minneapolis, Minn.) was used to determine the level of PGE2 in the supernatant, and three parallel experiments were performed. The optical density of each well was measured using a BioTek Epoch microplate reader (Winooski, Vt.) set to 450 nm. The NO study was performed in a similar manner, but Greiss reagent was used to monitor the level of NO, and the results were read at 550 nm.

[2] = test system: PGE2 induced by LPS; assay: Inhibition of LPS-induced PGE2 in RAW 264.7 cells (ELISA); assay type: cell-based, mice; details: for PGE2 inhibition rate (in words): same experimental method as Table 1; for PGE2 inhibition (%): RAW 264.7 cells, LPS 100 ng/mL, overnight, test concentration not given
Method: as §1

[3] = test system: acute gouty arthritis in rats induced by sodium urate crystals; assay: Foot swelling in rats with acute gouty arthritis induced by sodium urate crystals; assay type: in vivo; details: for Foot swelling: 16.67 mg/kg once a day, mean ± SD
Method: Injecting sodium urate crystals into the joint cavity to establish an acute gouty arthritis model. Its pathological and clinical manifestations are very similar. It is a classic method commonly used in animal experiments to study gouty arthritis. This experiment will explore the effects of UTLOH series drugs on animals with acute gouty arthritis induced by sodium urate.
SPF grade SD rats, half female and half male (200-220 g/mouse), were randomly grouped by weight. The drug was administered once a day, for 3 consecutive days. […] Rats in the normal group were injected with an equal volume of sterile saline to the back of the right ankle joint. The administration was continued after modeling, once a day for 3 consecutive days. The ankle joint and foot volume of the rats in each group were measured respectively before modeling and 2 h, 4 h, 8 h, 24 h and 48 h after modeling.

[4] = test system: 10% egg white-induced foot swelling in rats; assay: 10% egg white-induced foot swelling in rats; assay type: in vivo; details: for Foot swelling: 6.67 mg/kg gavage once a day for 3 days, mean ± SD
Description: Injecting 10% egg white into rat paws can cause early acute inflammation such as redness, heat, swelling, and pain in rat paws. In this experiment, the anti-inflammatory effects of UTLOH series compounds were observed by the degree of swelling of the paws of rats after inflammation.
SPF grade SD rats, half female and half male (100-120 g/mouse) were randomly grouped according to body weight. Each group was given the corresponding drugs by gavage, once a day, for 3 consecutive days, with a gavage volume of 1 ml/100 g. Before the experiment, the ankle joint of the right hind foot of each group of rats was marked, and the foot volume of each group of rats was measured twice with a rat foot volume meter, and the average of the two times was taken as the […]. 30 minutes after the last administration, the rats in each group were given a subcutaneous needle in the right hind paw, and injected with 10% fresh egg white solution 0.1 ml/mouse to cause inflammation, establishing a rat model of paw swelling. The post-inflamed foot volume in mice was measured twice at 1 h, 2 h, 3 h, and 4 h after inflammation, and the average of the two times was taken as the post-inflamed foot volume. The normal group was given 1 ml/100 g volume of 0.5% CMC-Na solution by gavage according to body weight.

[5] = same method as Table 1, given as 10-50 μM, or <10 μM, read-out: IC50 of NO
[6] = RAW 264.7 cells, LPS 100 ng/mL, overnight, read-out: NO IC50 (μM), class
[7] = RAW 264.7 cells, LPS 100 ng/mL, overnight, read-out: NO IC50 (μM), value in brackets

With Cc1cc(C(=O)Nc2cc(O)ccc2O)no1 [UTLOH-4f] the IC50 [1, 5] was ≤ 50 µM and the “PGE2 inhibition rate (in words)” value [2] was “very good”.

With Cc1cc(C(=O)Nc2c(O)cccc2O)no1 [UTLOH-4g] the IC50 [1, 5] was ≤ 50 µM and the “PGE2 inhibition rate (in words)” value [2] was “very good”.

With Cc1cc(C(=O)Nc2ccc(O)cc2)no1 [UTLOH-4c] the IC50 [1, 6] was < 10 µM, the IC50 [1, 7] was 6.3 µM and the “inhibition of LPS-induced NO compared with leflunomide and teriflunomide (in words)” value ([1]; compared with leflunomide and teriflunomide) was “more strongly”. The “PGE2 inhibition (%)” value [2] was 73.1% and the “inhibition on PGE2 compared to leflunomide (in words)” value ([2]; compared to leflunomide) was “stronger”.

For C/C(O)=C(\C#N)C(=O)Nc1ccc(C(F)(F)F)cc1 [Teriflunomide, reference compound], the IC50 [1, 6] was 150 to 250 µM, the IC50 [1, 7] was 175 µM and the “PGE2 inhibition (%)” value [2] was 70.2%.

With COc1cc2c(c(OC)c1OC)-c1ccc(OC)c(=O)cc1[C@@H](NC(C)=O)CC2 [Colchicine, reference compound] the “Foot swelling” value ([3]; 2 h after modeling) was 0.16 ± 0.12 mL, the “Foot swelling” value ([3]; 4 h after modeling) was 0.21 ± 0.10 mL and the “Foot swelling” value ([3]; 8 h after modeling) was 0.19 ± 0.10 mL. The “Foot swelling” value ([3]; 24 h after modeling) was 0.20 ± 0.10 mL, the “Foot swelling” value ([3]; 48 h after modeling) was 0.07 ± 0.09 mL and the “degree of foot swelling versus model group (in words)” value ([3]; gavage, at each time point) was “significantly lower”.

For Cc1cc(C(=O)Nc2cccc(O)c2)no1 [UTLOH-4b], the IC50 [1, 6] was < 10 µM, the IC50 [1, 7] was 7.7 µM and the “PGE2 inhibition (%)” value [2] was 64.0%.

With Cc1cc(C(=O)Nc2cccc(O)c2O)no1 [UTLOH-4d] the IC50 [1, 5] was ≤ 50 µM and the “PGE2 inhibition rate (in words)” value [2] was “very good”.

Cc1cc(C(=O)Nc2cc(O)cc(O)c2)no1 [UTLOH-4i] was tested, and the IC50 [1, 5] was ≤ 50 µM and the “PGE2 inhibition rate (in words)” value [2] was “very good”.

Cc1oncc1C(=O)Nc1ccc(C(F)(F)F)cc1 [Leflunomide, reference compound] was tested, and the IC50 [1, 6] was > 250 µM, the IC50 [1, 7] was 298 µM and the “PGE2 inhibition (%)” value [2] was 54.0%. For the same compound, the “Foot swelling” value ([4]; 1 h after inflammation) was 0.63 ± 0.14 mL, the “Foot swelling” value ([4]; 2 h after inflammation) was 0.62 ± 0.15 mL and the “Foot swelling” value ([4]; 3 h after inflammation) was 0.54 ± 0.14 mL. For the same compound, the “Foot swelling” value ([4]; 4 h after inflammation) was 0.43 ± 0.11 mL and the “degree of foot swelling compared with the normal group (in words)” value ([4]; at 1 h and 2 h) was “significantly reduced”.

In the case of Cc1cc(C(=O)Nc2ccc(O)c(O)c2)no1 [UTLOH-4h], the IC50 [1, 5] is reported as ≤ 50 µM and the “PGE2 inhibition rate (in words)” value [2] is reported as “very good”.

For Cc1cc(C(=O)Nc2c(O)cc(O)cc2O)no1 [UTLOH-4k], the IC50 [1, 5] was ≤ 50 µM and the “PGE2 inhibition rate (in words)” value [2] was “very good”.
